Laboratory results from patent US12728107B2, “Sirtuin activator, and method for activating sirtuin” (Yuki Gosei Kogyo Co., Ltd., priority 2020, dated 2026).
Where two headings read alike, the source gives them in different places.

Columns and labels:
[1] = tested on: senescence-associated β-galactosidase (SA-β-Gal) in skin dermal fibroblasts; experiment: Senescence marker SA-β-Gal activity (C12FDG fluorescence) in etoposide-treated skin dermal fibroblasts; conditions: FIG. 4
Sirt1 gene [2] = conditions: differentiated C2C12 cells; β-alanine 500 μM and 1 mM; added twice, 24 h apart; vs 1×PBS control; FIG. 1
Sirt3 gene [3] = conditions: skin dermal cells; culture supernatant of C2C12 cells treated with β-alanine; FIG. 3
Description: (§1) In this example, the activation of the sirtuin gene in skin dermal cells via a substance secreted from muscle cells (C2C12 cells) by β-alanine was examined.
(§2) C2C12 cells were seeded in 5-mL Dish at 2.0×10^5 cells/well, and 48 hours later, the medium was replaced with DMEM medium containing 2% HS to induce differentiation. The culture medium was changed every 2 days to a new medium, and differentiation was induced. Then, the medium was changed every 2 days and β-alanine was added, and the culture supernatant was collected after 8 days of culture. 1×PBS was added to the control cells. After 24 hours of the addition, sample was secondary added, and the culture supernatant was collected after 24 hours of the second addition of sample.
(§3) Specifically, cells were seeded at a concentration of 3.0×10^4 cells/mL in a 5 mL dish.
(§4) RNA extraction from cells, cDNA synthesis, and RT-PCR were performed by the same procedure as in Example 2. The sequences of the used primers of the human sirt6 gene are as follows.

Sirt6 gene = conditions: skin dermal cells; culture supernatant of C2C12 cells treated with β-alanine; FIG. 3
Description: as §1, §2, §3, §4

Sirt1 gene [4] = conditions: skin dermal cells; culture supernatant of C2C12 cells treated with β-alanine; FIG. 3
Description: as §1, §2, §3, §4

Sirt3 gene [5] = conditions: differentiated C2C12 cells; β-alanine 500 μM and 1 mM; added twice, 24 h apart; vs 1×PBS control; FIG. 1
Sirt3 gene [6] = conditions: HaCaT cells; β-alanine 500 μM and 10 mM; added twice, 24 h apart; vs 1×PBS control; FIG. 2
Description: (§5) In this example, a transcription of the Sirt1 gene and Sirt3 gene in HaCaT cells, a human epidermal keratinocyte cell line, was measured.
(§6) HaCaT cells were seeded in 6-well plates at 6.0×10^4 cells/well. After 24 hours, β-alanine was added to the cells, and 1×PBS was added to the control cells. After 24 hours of the addition, sample was secondary added, and the medium was aspirated after 24 hours of the second addition of sample. Then, 1×PBS was added at 1 mL/well to wash the cells. RNA extraction from cells, cDNA synthesis, and RT-PCR were performed by the same procedure as in Example 1. The sequences of the used primers of the human sirtuin genes are as follows.

Sirt1 gene [7] = conditions: HaCaT cells; β-alanine 500 μM and 10 mM; added twice, 24 h apart; vs 1×PBS control; FIG. 2
Description: as §5, §6

fluorescence intensity of C12FDG (SA-β-Gal activity) ([1]; dermal fibroblasts, etoposide 50 μM for 30 minutes, vs DMSO control) | fluorescence intensity of C12FDG (SA-β-Gal activity) ([1]; etoposide-treated dermal fibroblasts, culture supernatant of β-alanine-treated C2C12 cells, 48 hours) | SMILES | expression of Sirt1 (Sirt1 gene [2]) | expression of Sirt3 (Sirt3 gene [3]) | expression of Sirt6 (Sirt6 gene) | expression of Sirt1 (Sirt1 gene [4]) | expression of Sirt3 (Sirt3 gene [5]) | expression of Sirt3 (Sirt3 gene [6]) | expression of Sirt1 (Sirt1 gene [7])
significantly enhanced |  | COc1cc([C@@H]2c3cc4c(cc3[C@@H](O[C@@H]3O[C@@H]5CO[C@@H](C)O[C@H]5[C@H](O)[C@H]3O)[C@H]3COC(=O)[C@H]23)OCO4)cc(OC)c1O [etoposide, reference compound] |  |  |  |  |  |  | 
 | decreased | NCCC(=O)O [β-alanine, 3-aminopropanoic acid] | enhanced | enhanced | enhanced | enhanced | enhanced | enhanced | enhanced
